Measured values: paper PMC3257202, “Xylan oligosaccharides and cellobiohydrolase I (TrCel7A) interaction and effect on activity” (Biotechnology for Biofuels, 2011)

Legend:
[1] = target: T1, TrCel7A core (Trichoderma reesei, UniProt P62694); assay: isothermal titration calorimetry; conditions: 30°C, binding constant on a molar concentration scale (unit not given)
T1 construct: gene cbh1; GH7 catalytic domain only, first 436 residues after the 17-residue signal peptide; linker and C-terminal family 1 CBM removed; recombinant from Aspergillus oryzae, purified
T1 sequence (P62694 18-453): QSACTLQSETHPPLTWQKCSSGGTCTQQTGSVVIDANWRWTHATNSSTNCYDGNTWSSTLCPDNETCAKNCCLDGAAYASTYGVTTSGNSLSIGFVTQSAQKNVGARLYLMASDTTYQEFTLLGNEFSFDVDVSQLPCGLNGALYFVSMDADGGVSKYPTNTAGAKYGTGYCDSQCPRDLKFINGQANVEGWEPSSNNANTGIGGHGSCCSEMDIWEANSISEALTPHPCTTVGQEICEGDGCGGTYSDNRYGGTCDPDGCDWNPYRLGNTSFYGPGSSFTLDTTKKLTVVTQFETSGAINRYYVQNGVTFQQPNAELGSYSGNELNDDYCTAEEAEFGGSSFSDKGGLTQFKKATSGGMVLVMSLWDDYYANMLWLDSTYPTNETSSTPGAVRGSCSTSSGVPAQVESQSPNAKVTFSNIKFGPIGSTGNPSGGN
Description: isothermal titration calorimetry on TrCel7A core

[2] = target: T2, TrCel7A (Trichoderma reesei, UniProt P62694); assay: isothermal titration calorimetry; conditions: 30°C; binding constant on a molar concentration scale (unit not given)
T2 construct: gene cbh1; full-length secreted enzyme (GH7 catalytic domain, glycosylated linker, family 1 CBM), 17-residue signal peptide removed, 52 kDa; recombinant from Aspergillus oryzae, purified
T2 sequence (P62694 18-513): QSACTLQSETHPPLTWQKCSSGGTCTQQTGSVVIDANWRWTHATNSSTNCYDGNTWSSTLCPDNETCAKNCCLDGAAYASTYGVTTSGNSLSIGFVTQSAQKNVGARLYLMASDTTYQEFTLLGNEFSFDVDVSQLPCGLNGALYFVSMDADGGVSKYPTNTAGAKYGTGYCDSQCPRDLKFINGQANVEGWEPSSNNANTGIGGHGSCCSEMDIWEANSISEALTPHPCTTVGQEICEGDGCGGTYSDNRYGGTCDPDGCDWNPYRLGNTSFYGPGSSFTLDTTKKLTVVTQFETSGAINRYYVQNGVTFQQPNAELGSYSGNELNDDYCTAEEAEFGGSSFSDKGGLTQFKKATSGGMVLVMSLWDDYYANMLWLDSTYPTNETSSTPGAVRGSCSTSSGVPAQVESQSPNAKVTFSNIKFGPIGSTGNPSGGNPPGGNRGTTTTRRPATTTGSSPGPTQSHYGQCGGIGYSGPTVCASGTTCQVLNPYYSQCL
Description: isothermal titration calorimetry on TrCel7A

TrCel7A core (K) [1]	TrCel7A (K) [2]	TrCel7A core (K) ([1]; compound identity contradictory in print (name hexaose, formula (xyl)5))	Compound
7.43 × 10^3	5.76 × 10^3		OC1OC[C@@H](O[C@@H]2OC[C@@H](O[C@@H]3OC[C@@H](O[C@@H]4OC[C@@H](O[C@@H]5OC[C@@H](O[C@@H]6OC[C@@H](O[C@@H]7OC[C@@H](O)[C@H](O)[C@H]7O)[C@H](O)[C@H]6O)[C@H](O)[C@H]5O)[C@H](O)[C@H]4O)[C@H](O)[C@H]3O)[C@H](O)[C@H]2O)[C@H](O)[C@H]1O (some centres unmarked) [Xyloheptaose]
> 1.0 × 10^3			OC1OC[C@@H](O[C@@H]2OC[C@@H](O[C@@H]3OC[C@@H](O)[C@H](O)[C@H]3O)[C@H](O)[C@H]2O)[C@H](O)[C@H]1O (some centres unmarked) [Xylotriose]
		3.44 × 10^3	Xylohexaose (xyl)5
2.97 × 10^3			OC1OC[C@@H](O[C@@H]2OC[C@@H](O[C@@H]3OC[C@@H](O[C@@H]4OC[C@@H](O)[C@H](O)[C@H]4O)[C@H](O)[C@H]3O)[C@H](O)[C@H]2O)[C@H](O)[C@H]1O (some centres unmarked) [Xylotetraose]
